# How the values were obtained:
# [1] = target: T1, Ephrin type-B receptor 3 (Homo sapiens) (UniProt P54753); assay: Selectivity interaction (KinomeScan (DiscoverX)) EUB0000655a EPHB3; conditions: at 10 µM
# T1 sequence (whole entry): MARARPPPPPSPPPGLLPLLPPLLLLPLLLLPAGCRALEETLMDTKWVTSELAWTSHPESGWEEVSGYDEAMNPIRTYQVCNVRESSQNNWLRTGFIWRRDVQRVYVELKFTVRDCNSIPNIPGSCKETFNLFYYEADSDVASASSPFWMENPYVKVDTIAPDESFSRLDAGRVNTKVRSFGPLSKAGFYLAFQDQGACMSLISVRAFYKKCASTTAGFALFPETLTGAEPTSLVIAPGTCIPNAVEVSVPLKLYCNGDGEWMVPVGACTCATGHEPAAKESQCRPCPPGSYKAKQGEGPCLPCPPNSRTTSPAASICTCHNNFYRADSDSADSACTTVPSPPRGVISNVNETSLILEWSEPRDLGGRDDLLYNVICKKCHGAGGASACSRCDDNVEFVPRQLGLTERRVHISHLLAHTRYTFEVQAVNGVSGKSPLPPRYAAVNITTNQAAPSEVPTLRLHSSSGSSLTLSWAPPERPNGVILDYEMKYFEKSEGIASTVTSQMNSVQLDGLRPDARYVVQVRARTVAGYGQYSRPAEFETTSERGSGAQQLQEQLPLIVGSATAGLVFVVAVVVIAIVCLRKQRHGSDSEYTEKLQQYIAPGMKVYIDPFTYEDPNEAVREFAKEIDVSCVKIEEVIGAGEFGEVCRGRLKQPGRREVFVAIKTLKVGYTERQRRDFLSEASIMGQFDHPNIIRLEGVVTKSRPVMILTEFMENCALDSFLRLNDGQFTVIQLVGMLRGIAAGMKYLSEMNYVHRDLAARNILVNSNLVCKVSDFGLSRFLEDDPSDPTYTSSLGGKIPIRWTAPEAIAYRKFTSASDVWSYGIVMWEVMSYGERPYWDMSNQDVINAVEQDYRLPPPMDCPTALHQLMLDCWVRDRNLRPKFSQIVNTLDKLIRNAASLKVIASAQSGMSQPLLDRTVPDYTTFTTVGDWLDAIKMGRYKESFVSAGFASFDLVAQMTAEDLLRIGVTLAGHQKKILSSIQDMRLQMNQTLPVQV
# [2] = target: Tyrosine-protein kinase ABL2 (Homo sapiens, UniProt P42684); assay: Selectivity interaction (Millipore kinase profiler) EUB0000124b ABL2; conditions: at 10 µM
# Chain of Tyrosine-protein kinase ABL2 (P42684 whole entry): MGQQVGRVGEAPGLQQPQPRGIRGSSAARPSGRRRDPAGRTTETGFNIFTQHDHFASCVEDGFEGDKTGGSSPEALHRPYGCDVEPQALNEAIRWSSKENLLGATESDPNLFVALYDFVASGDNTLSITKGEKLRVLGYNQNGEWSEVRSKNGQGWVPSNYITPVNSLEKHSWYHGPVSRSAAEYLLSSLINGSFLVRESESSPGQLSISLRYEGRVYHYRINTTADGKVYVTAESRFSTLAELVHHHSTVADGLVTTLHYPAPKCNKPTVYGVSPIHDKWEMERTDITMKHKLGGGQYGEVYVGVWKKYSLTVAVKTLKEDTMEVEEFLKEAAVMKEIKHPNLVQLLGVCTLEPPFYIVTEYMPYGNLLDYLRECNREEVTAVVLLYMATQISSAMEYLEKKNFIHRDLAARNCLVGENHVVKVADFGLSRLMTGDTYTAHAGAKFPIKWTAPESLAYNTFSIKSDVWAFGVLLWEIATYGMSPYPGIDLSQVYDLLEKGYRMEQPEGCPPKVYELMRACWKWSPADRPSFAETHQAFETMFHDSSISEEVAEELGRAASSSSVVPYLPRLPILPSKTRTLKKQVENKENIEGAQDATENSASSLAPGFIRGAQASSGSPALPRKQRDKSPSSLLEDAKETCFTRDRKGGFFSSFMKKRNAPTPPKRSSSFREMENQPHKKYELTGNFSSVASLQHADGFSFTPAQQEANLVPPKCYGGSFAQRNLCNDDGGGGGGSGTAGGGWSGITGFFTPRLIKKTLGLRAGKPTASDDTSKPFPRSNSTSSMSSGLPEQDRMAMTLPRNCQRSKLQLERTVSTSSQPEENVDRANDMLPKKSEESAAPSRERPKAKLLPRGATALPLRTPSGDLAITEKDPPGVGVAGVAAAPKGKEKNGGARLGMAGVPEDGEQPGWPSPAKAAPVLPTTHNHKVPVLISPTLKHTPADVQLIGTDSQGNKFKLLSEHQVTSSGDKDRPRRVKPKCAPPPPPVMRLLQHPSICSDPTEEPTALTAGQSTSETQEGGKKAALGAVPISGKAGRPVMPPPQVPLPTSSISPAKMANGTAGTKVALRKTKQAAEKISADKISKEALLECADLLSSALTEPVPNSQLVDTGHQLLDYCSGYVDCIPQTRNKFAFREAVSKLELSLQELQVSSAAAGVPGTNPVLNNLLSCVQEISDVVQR
# [3] = target: T2, Mitogen-activated protein kinase kinase kinase 5 (Homo sapiens) (UniProt Q99683); assay: Selectivity interaction (Kinase panel (Invitrogen)) EUB0000639a MAP3K5; conditions: at 200 nM
# T2 sequence (whole entry): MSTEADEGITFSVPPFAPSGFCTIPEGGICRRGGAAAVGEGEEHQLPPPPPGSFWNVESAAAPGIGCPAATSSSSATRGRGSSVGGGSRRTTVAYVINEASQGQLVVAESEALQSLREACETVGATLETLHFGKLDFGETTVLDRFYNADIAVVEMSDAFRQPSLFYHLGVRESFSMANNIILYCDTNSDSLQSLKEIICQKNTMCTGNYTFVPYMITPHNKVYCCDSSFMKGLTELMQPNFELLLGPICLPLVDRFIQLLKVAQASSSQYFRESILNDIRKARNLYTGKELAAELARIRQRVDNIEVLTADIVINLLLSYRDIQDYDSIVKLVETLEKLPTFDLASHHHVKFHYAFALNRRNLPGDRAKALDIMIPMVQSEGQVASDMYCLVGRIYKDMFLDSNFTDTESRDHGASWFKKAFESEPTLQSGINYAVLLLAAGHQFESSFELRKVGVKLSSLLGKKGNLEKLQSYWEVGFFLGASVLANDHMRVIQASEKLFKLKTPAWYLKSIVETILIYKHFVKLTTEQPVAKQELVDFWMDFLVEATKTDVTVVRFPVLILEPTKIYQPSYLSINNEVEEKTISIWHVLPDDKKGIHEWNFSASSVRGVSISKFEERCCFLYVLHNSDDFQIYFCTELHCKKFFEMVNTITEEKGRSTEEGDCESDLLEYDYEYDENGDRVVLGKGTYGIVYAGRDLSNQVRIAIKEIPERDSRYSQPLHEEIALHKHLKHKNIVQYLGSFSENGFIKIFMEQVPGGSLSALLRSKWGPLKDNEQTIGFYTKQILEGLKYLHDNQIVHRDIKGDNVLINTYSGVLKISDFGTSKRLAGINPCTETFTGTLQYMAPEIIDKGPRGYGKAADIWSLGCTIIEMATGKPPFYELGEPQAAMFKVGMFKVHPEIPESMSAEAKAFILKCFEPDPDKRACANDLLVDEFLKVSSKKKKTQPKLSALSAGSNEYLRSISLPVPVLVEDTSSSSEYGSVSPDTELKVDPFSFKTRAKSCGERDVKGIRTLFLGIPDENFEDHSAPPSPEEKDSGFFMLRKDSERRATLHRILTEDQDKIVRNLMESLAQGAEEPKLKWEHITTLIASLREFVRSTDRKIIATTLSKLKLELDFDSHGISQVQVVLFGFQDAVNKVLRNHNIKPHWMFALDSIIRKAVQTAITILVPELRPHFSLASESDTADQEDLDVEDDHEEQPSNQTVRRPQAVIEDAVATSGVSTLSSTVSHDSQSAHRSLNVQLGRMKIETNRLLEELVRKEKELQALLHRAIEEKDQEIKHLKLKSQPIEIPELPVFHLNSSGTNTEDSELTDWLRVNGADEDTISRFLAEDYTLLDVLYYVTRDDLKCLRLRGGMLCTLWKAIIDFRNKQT
# [4] = target: Leukocyte tyrosine kinase receptor (Homo sapiens, UniProt P29376); assay: Selectivity interaction (SelectScreen profiling (Invitrogen)) EUB0000607a LTK; conditions: at 2 µM
# Chain of Leukocyte tyrosine kinase receptor (P29376 whole entry): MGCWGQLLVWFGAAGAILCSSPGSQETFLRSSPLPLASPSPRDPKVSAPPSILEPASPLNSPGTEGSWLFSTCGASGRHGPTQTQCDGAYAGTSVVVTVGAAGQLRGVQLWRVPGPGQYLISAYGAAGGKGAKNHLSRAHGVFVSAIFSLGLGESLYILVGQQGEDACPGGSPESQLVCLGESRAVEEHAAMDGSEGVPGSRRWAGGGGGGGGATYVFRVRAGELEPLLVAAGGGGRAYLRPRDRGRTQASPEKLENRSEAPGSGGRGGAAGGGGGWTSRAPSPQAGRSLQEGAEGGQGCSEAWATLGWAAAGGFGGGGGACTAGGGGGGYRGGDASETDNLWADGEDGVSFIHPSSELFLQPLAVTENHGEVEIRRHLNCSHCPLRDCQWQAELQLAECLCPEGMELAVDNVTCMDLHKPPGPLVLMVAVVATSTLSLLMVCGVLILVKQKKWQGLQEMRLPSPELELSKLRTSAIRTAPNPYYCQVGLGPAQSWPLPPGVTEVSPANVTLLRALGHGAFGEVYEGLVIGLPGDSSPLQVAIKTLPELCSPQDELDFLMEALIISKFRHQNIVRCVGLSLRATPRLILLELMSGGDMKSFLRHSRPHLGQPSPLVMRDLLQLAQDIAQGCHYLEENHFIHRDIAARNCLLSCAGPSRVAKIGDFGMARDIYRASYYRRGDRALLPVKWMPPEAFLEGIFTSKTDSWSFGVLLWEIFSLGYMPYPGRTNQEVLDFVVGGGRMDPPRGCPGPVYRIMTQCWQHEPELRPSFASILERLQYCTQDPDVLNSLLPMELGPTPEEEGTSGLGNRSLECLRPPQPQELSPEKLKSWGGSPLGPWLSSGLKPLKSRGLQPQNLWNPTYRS
smiles,measurement,setting,value
CN(C)CCOc1ccc(-c2nc(-c3ccncc3)c(-c3ccc4c(c3)CC/C4=N\O)[nH]2)cc1,% of control,[1],100%
CC(=O)Nc1cccc(-n2c(=O)n(C3CC3)c(=O)c3c(Nc4ccc(I)cc4F)n(C)c(=O)c(C)c32)c1,% of control,[2],111%
CC[C@@H]1[C@H](F)C(=O)N[C@@H]1COc1nccc2cc(C(N)=O)c(OC)cc12 [ZIMLOVISERTIB],% of inhibition,[3],-8.62%
CNC(=O)Nc1ccc(-c2nc(N3CC4CCC(C3)O4)c3cnn(C4CCC5(CC4)OCCO5)c3n2)cc1,% of inhibition,[4],8%
